Structures can show the parent of a compound that is named as a salt. Where two headings read alike, the source gives them in different places. Marks after values point to notes of the source that are not given here.
Legend:
[1] = Solubility of berberine hydrochloride in the NADES, its water dilutions and malic acid solutions; type: physicochemical
Protocol: BBR was dissolved in pure water as a control. The solutions were ultrasonically treated for 1 h, and after full vortexing, the solutions were placed at room temperature for 1 h. Next, the solutions were centrifuged at 20,000 g for 10 min at 20°C. The obtained supernatant was filtered through a 0.22 μm membrane. The filtered solution was diluted with a certain volume of methanol, followed by injection into the LC-MS system for the quantitative analysis of BBR (Quantification of several Coptidis Rhizomaalkaloids).
The concentrations of the primary metabolites were equal to their concentrations in the NADES, i.e., 490.5 mg/ml, 280.6 mg/ml, 517.7 mg/ml, and 19.0 mg/ml, respectively.

[2] = Transportation of BBR across MDCK-MDR1 cell monolayer; type: in vitro ADME, canine; conditions: dog, MDCK-MDR1
Protocol: (§1) MDCK-MDR1 cells were seeded on a Merck Transwell polycarbonate membrane (NJ, United States) at a density of 2 × 10^5 cells/mL. The cells were cultured until the tight junctions were formed (transepithelial electrical resistance value >500 Ω cm2). Before the experiment, the media on both sides of the chamber were replaced with a warmed HBSS solution. The cells were then incubated for 20 min at 37°C.
(§2) The unit of P app is cm/sec.

MDCK-MDR1 cell monolayer = assay: as above; type: in vitro ADME, canine; conditions: for P app (AP-BL) / P app (BL-AP) / ERs (efflux rate): BBR 10 μg/ml
Protocol: as §1, §2

[3] = Pharmacokinetics of oral BBR in mice (portal vein and liver); type: in vivo, mice; conditions: for AUC0-∞ / AUC0–12 h / Cmax / MRT / Tmax / half-life / AUC(0-inf) / AUC(0-t): mice; for AUC(0-t): read-out: AUC0–12 h
Protocol: The dosages of malic acid were, respectively, equal to the dosages of malic acid in the 1 and 10% water dilutions of the NADES. […] Six mice in each group were anesthetized using diethyl ether at 0.25, 0.5, 1, 2, 3, 4, 6, 8, or 12 h after administration. Blood samples were then collected from the portal vein into heparin-containing tubes. The plasma samples were obtained by centrifugation of the blood samples at 1,000 g for 10 min at 4°C. The livers of the mice were collected and homogenized in 10 × volume of water. At the end of the experiment, the mice were euthanized by cervical dislocation.
A non-compartmental analysis using WinNonlin® software (Pharsight, CA, United States) was performed to obtain the pharmacokinetic parameters of berberine in mice. It should be noted that the pharmacokinetic parameters were calculated based on the average drug concentration at each time point because the mice were not continuously sampled.

[4] = ref Liu et al., cited from earlier work
ICR mice = assay: Acute toxicity in mice; type: in vivo; conditions: malic acid 9,800, 2,940 or 980 mg/kg oral
Protocol: Sixty ICR mice were randomly divided into three groups according to gender and body weight, with 20 mice in each group. After fasting for 12 h, the mice were orally administered with 0.2 ml/10 g body weight the NADES (the four-component NADES prepared with 350 μL water, the same below) or its 30 and 10% water dilutions, respectively. The symptoms of the mice were then observed, and the death time and the number of dead mice within 3 days were recorded.
The above method was also used to evaluate the acute toxicity of malic acid at different dosages, i.e., 9,800, 2,940, or 980 mg/kg, which were, respectively, equal to the dosages of malic acid in the NADES and its 30%, and10% water dilutions.

mouse gut sacs = assay: Transportation of BBR in mouse gut sacs; type: in vitro ADME; conditions: BBR 200 μg/ml
Protocol: After incubation, aliquots of buffer (100 μL) were, respectively, taken from the serosal side or mucosal side every 15–60 min and replaced with an equal volume of blank Krebs-Ringer buffer. The LC-MS system (Quantification of several Coptidis Rhizomaalkaloids) was used for the quantitative analysis of BBR.

[5] = system: intestinal paracellular tight junctions (mouse gut sac); assay: Transportation of FD4 across mouse gut sacs (tight junction integrity); type: in vitro ADME
Protocol: Fluorescein isothiocyanate-labeled dextran (FD4) with a molecular weight of 4,400 g/moL, is usually used to test the integrity of intestinal paracellular tight junctions ([Ma et al., 2012]). The influence of various NADES dilutions (1, 3, and 10%) on the in vitro transportation of FD4 (3 mg/ml) across the mouse gut sac was determined. The concentrations of FD4 were determined using a fluorescence microplate reader (BioTek Instruments, Winooski, VT, United States), with excitation and emission at 485 and 528 nm, respectively, ([Ma et al., 2012]). In addition, the effects of NADES dilutions pretreatment on the transportation of FD4 across the mouse gut sacs were also determined. Several mice were orally administered with 10% NADES aqueous solution. The intestines were collected after 4 h, completely washed with blank Krebs-Ringer buffer, and subsequently used for the transportation study.

MDCK-MDR1 cells = assay: Cytotoxicity in MDCK-MDR1 cells (CCK-8); conditions: 4 and 24 h; for Cytotoxicity: p > 0.05
Protocol: The cells were seeded into 96 well plate at the density of 3 × 10^4 cells per well. After 24 h incubation in the incubator, the culture medium was carefully sucked out, and then 200 μL DMEM medium containing 0.1, 0.3, 1 or 3% NADES was added. The control well was added with the same volume of DMEM medium. After incubation for 4 h or 24 h, 10% CCK-8 solution was added. After incubation for another 2 h, the absorbance at 450 nm was measured by using a microplate reader. The cytotoxicity of the NADES dilutions was evaluated by comparing the absorbance of the treatment groups to that of the control group.
The above method was also used to evaluate the cytotoxicity of different concentrations of malic acid, i.e., 4.90, 1.47 or 0.49 mg/ml, which were, respectively, equal to the concentrations of malic acid in the 1, 0.3 or 0.1% dilutions of the NADES.

[6] = livers, oral BBR 200 mg/kg dissolved in water (Control)
[7] = livers, oral BBR 200 mg/kg in 1% NADES dilution
[8] = livers, oral BBR 200 mg/kg in 10% NADES dilution
[9] = livers, oral BBR 200 mg/kg in malic acid solution 98 mg/kg
[10] = livers, oral BBR 200 mg/kg in malic acid solution 980 mg/kg
[11] = mouse, liver, po, 200 mg/kg, livers, oral BBR 200 mg/kg dissolved in water (Control)
[12] = mouse, liver, po, 200 mg/kg, livers, oral BBR 200 mg/kg in 1% NADES dilution
[13] = mouse, liver, po, 200 mg/kg, livers, oral BBR 200 mg/kg in 10% NADES dilution
[14] = mouse, liver, po, 200 mg/kg, livers, oral BBR 200 mg/kg in malic acid solution 98 mg/kg
[15] = mouse, liver, po, 200 mg/kg, livers, oral BBR 200 mg/kg in malic acid solution 980 mg/kg
[16] = mouse, portal vein plasma, po, 200 mg/kg, portal vein, oral BBR 200 mg/kg dissolved in water (Control)
[17] = mouse, portal vein plasma, po, 200 mg/kg, portal vein, oral BBR 200 mg/kg in 1% NADES dilution
[18] = mouse, portal vein plasma, po, 200 mg/kg, portal vein, oral BBR 200 mg/kg in 10% NADES dilution
[19] = mouse, portal vein plasma, po, 200 mg/kg, portal vein, oral BBR 200 mg/kg in malic acid solution 98 mg/kg
[20] = mouse, portal vein plasma, po, 200 mg/kg, portal vein, oral BBR 200 mg/kg in malic acid solution 980 mg/kg

SMILES: COc1ccc2cc3[n+](cc2c1OC)CCc1cc2c(cc1-3)OCO2 [BBR, Berberine hydrochloride]
- solubility ([1]; NADES (undiluted), in the NADES (100%), room temperature (20°C)): ≥ 20 mg/mL
- Solubility of berberine hydrochloride ([1]; as the pH of the malic acid solution was increased by addition of NaOH, p < 0.01): increased
- Solubility of BBR compared with water ([1]; in 10% water dilution of NADES, p < 0.01): higher
- Solubility of BBR compared with water ([1]; in 30% water dilution of NADES, p < 0.01): higher
- Papp A→B at 10 μg/ml [2]: 0.41 ± 0.06 ×10⁻⁶ cm/s
- Papp B→A at 10 μg/ml [2]: 13.3 ± 0.4 ×10⁻⁶ cm/s
- P app (AP-BL) (MDCK-MDR1 cell monolayer; with 0.3% NADES): 0.88 ± 0.13 ×10^−6 cm/s
- P app (BL-AP) (MDCK-MDR1 cell monolayer; with 0.3% NADES): 13.1 ± 1.9 ×10^−6 cm/s
- ERs (efflux rate) (MDCK-MDR1 cell monolayer; with 0.3% NADES, p < 0.05 vs Control): 14.9*
- P app (AP-BL) (MDCK-MDR1 cell monolayer; with 1% NADES): 20.1 ± 8.7 ×10^−6 cm/s
- P app (BL-AP) (MDCK-MDR1 cell monolayer; with 1% NADES): 21.7 ± 1.4 ×10^−6 cm/s
- ERs (efflux rate) (MDCK-MDR1 cell monolayer; with 1% NADES, p < 0.01 vs Control): 1.1**
- P app from AP to BL (MDCK-MDR1 cell monolayer; BBR alone): lower than 10^−6 cm/s
- AUC0-∞ [3, 6]: 68.4 μg·h/g liver
- AUC0–12 h [3, 6]: 66.3 μg·h/g liver
- Cmax [3, 6]: 16.7 μg/g liver
- AUC0-∞ [3, 7]: 80.9 μg·h/g liver
- AUC0–12 h [3, 7]: 74.5 μg·h/g liver
- Cmax [3, 7]: 29.3 μg/g liver
- AUC0-∞ [3, 8]: 112.5 μg·h/g liver
- AUC0–12 h [3, 8]: 109.4 μg·h/g liver
- Cmax [3, 8]: 34.8 μg/g liver
- AUC0-∞ [3, 9]: 73.8 μg·h/g liver
- AUC0–12 h [3, 9]: 72.3 μg·h/g liver
- Cmax [3, 9]: 38.0 μg/g liver
- AUC0-∞ [3, 10]: 88.3 μg·h/g liver
- AUC0–12 h [3, 10]: 85.9 μg·h/g liver
- Cmax [3, 10]: 30.0 μg/g liver
- Toxic reaction after oral administration ([3]; mouse, in vivo, po): no toxic reaction
- MRT [3, 11]: 3.7 h
- Tmax [3, 11]: 2 h
- half-life [3, 11]: 2.2 h
- MRT [3, 12]: 3.2 h
- Tmax [3, 12]: 2 h
- MRT [3, 13]: 3 h
- Tmax [3, 13]: 1 h
- half-life [3, 13]: 2.2 h
- MRT [3, 14]: 3 h
- Tmax [3, 14]: 2 h
- half-life [3, 14]: 2.3 h
- MRT [3, 15]: 2.5 h
- Tmax [3, 15]: 1 h
- half-life [3, 15]: 1.5 h
- AUC(0-inf) [3, 16]: 1130 ng·h/mL
- MRT [3, 16]: 3.1 h
- Tmax [3, 16]: 2 h
- half-life [3, 16]: 1.7 h
- AUC(0-t) [3, 16]: 1120 ng·h/mL
- Cmax ([3]; mouse, portal vein plasma, po, 200 mg/kg, portal vein, oral BBR 200 mg/kg dissolved in water (Control), read-out: Cmax): 321 ng/mL
- AUC(0-inf) [3, 17]: 2740 ng·h/mL
- MRT [3, 17]: 2.9 h
- Tmax [3, 17]: 2 h
- half-life [3, 17]: 1.3 h
- AUC(0-t) [3, 17]: 2730 ng·h/mL
- Cmax ([3]; mouse, portal vein plasma, po, 200 mg/kg, portal vein, oral BBR 200 mg/kg in 1% NADES dilution, read-out: Cmax): 975 ng/mL
- AUC(0-inf) [3, 18]: 3610 ng·h/mL
- MRT [3, 18]: 2.4 h
- Tmax [3, 18]: 1 h
- half-life [3, 18]: 1.7 h
- AUC(0-t) [3, 18]: 3590 ng·h/mL
- Cmax ([3]; mouse, portal vein plasma, po, 200 mg/kg, portal vein, oral BBR 200 mg/kg in 10% NADES dilution, read-out: Cmax): 1470 ng/mL
- AUC(0-inf) [3, 19]: 2300 ng·h/mL
- MRT [3, 19]: 2.7 h
- Tmax [3, 19]: 2 h
- half-life [3, 19]: 2.7 h
- AUC(0-t) [3, 19]: 2230 ng·h/mL
- Cmax ([3]; mouse, portal vein plasma, po, 200 mg/kg, portal vein, oral BBR 200 mg/kg in malic acid solution 98 mg/kg, read-out: Cmax): 972 ng/mL
- AUC(0-inf) [3, 20]: 3070 ng·h/mL
- MRT [3, 20]: 2.1 h
- Tmax [3, 20]: 1 h
- half-life [3, 20]: 1.4 h
- AUC(0-t) [3, 20]: 3060 ng·h/mL
- Cmax ([3]; mouse, portal vein plasma, po, 200 mg/kg, portal vein, oral BBR 200 mg/kg in malic acid solution 980 mg/kg, read-out: Cmax): 1250 ng/mL
- Fraction of oral BBR directly removed with feces [4]; 2010: about 56%
- Fraction of oral BBR eliminated by intestinal efflux transporters and drug metabolizing enzymes [4]; 2010: about 43.5%
- Oral bioavailability [4]; 2010: 0.36%
- Fraction of BBR directly discharged from the body after oral administration [4]; 2016: about 56%
- Fraction of oral BBR eliminated during intestinal absorption [4]; 2016: 43.5%

SMILES: O=C(O)CC(O)C(=O)O (centres unmarked) [malic acid]
- Acute toxicity (ICR mice): significant acute toxicity
- Effect on efflux of BBR in gut sacs (mouse gut sacs; malic acid 14.7 mg/ml or more): promoted the efflux
- Effect on absorption of BBR in gut sacs (mouse gut sacs; malic acid 4.9–49.0 mg/ml, concentration-dependent): promoted the absorption
- Effect on absorption of FD4 across mouse gut sacs ([5]; malic acid 4.9, 14.7, 49.0 mg/ml present, concentration dependent, p < 0.01): increased the absorption
- Reversibility of the effect on FD4 absorption ([5]; malic acid pretreatment for 4 h): reversible
- Cytotoxicity (MDCK-MDR1 cells; 0.49 mg/ml malic acid): no significant cytotoxicity
- Cytotoxicity (MDCK-MDR1 cells; 1.47 mg/ml malic acid): no significant cytotoxicity
- Cell viability (MDCK-MDR1 cells; 4.9 mg/ml malic acid, p < 0.01): completely lost

— publication PMC8215677 (Frontiers in Pharmacology, 2021)
